Measured values reported in ChEMBL document CHEMBL5303304, “EUbOPEN Chemogenomics Library - IncuCyte” (2023).

How the values were obtained:
Format in all cases: toxicity, cell-based
HEK-293T = experiment: Incucyte cell viability with HEK293T; details: human, 10 µM, compound concentration 10 uM
Fibroblast = experiment: Incucyte cell viability with human fibroblast; details: 10 µM, compound concentration 10 uM
U2OS = experiment: Incucyte cell viability with U2OS; details: human, 10 µM, compound concentration 10 uM
Further: unitless GR value; below 1 slowed growth and below 0 cell loss.

Structure (SMILES) | Growth Rate (HEK-293T; 0 h, replicate number 1) | Growth Rate (HEK-293T; 6 h, replicate number 1) | Growth Rate (HEK-293T; 6 h, replicate number 2) | Growth Rate (HEK-293T; 12 h, replicate number 1) | Growth Rate (HEK-293T; 12 h, replicate number 2) | Growth Rate (HEK-293T; 18 h, replicate number 1) | Growth Rate (HEK-293T; 18 h, replicate number 2) | Growth Rate (HEK-293T; 24 h, replicate number 2) | Growth Rate (Fibroblast; 6 h, replicate number 1) | Growth Rate (Fibroblast; 6 h, replicate number 2) | Growth Rate (Fibroblast; 12 h, replicate number 1) | Growth Rate (Fibroblast; 18 h, replicate number 2) | Growth Rate (Fibroblast; 24 h, replicate number 2) | Growth Rate (U2OS; 6 h, replicate number 2) | Growth Rate (U2OS; 12 h, replicate number 1) | Growth Rate (U2OS; 18 h, replicate number 1) | Growth Rate (U2OS; 18 h, replicate number 2) | Growth Rate (U2OS; 24 h, replicate number 1) | Growth Rate (U2OS; 24 h, replicate number 2) | Growth Rate (U2OS; 0 h, replicate number 1) | other results
COc1ccc(Cl)cc1[C@]1(F)C(=O)Nc2cc(C(F)(F)F)ccc21 [FLINDOKALNER] | 0.73 | 0.73 | 0.03 | 0.58 | 0.38 | 0.42 | 0.4 | 0.47 | -0.6 | -1 | -1 | 0.41 | 0.58 | 0.48 | 0.57 | 0.79 | 0.88 | 0.83 | 0.95 | – | Growth Rate (HEK-293T; 24 h, replicate number 1): 0.44; Growth Rate (Fibroblast; 12 h, replicate number 2): 0.2; Growth Rate (U2OS; 12 h, replicate number 2): 0.76
O=C(O)CCC/C=C\C[C@@H]1[C@@H](/C=C/[C@@H](O)COc2cccc(C(F)(F)F)c2)[C@H](O)C[C@@H]1O [FLUPROSTENOL] | -0.11 | – | – | – | – | – | – | – | 0.15 | -0.58 | 0.5 | 0.18 | 0.44 | 0.95 | – | – | 0.9 | – | 0.91 | 0.61 | Growth Rate (HEK-293T; 0 h, replicate number 2): 0.68; Growth Rate (Fibroblast; 12 h, replicate number 2): 0.09; Growth Rate (Fibroblast; 18 h, replicate number 1): 0.89; Growth Rate (Fibroblast; 24 h, replicate number 1): 0.8; Growth Rate (U2OS; 6 h, replicate number 1): 0.86; Growth Rate (U2OS; 12 h, replicate number 2): 0.91
Cc1nc2c([nH]1)c(=O)n(C)c(=O)n2Cc1ccco1 [FURAFYLLINE] | – | 0.19 | 0.63 | 0.18 | 0.76 | 0.7 | 0.82 | 0.88 | 0.42 | – | -1 | – | – | 0.59 | 0.95 | – | 1 | – | – | -0.64 | Growth Rate (HEK-293T; 24 h, replicate number 1): 0.87; Growth Rate (Fibroblast; 0 h, replicate number 2): -0.99; Growth Rate (Fibroblast; 18 h, replicate number 1): 0.5; Growth Rate (Fibroblast; 24 h, replicate number 1): 0.65; Growth Rate (U2OS; 0 h, replicate number 2): -0.96
COc1ccc(CCN(C)CCCC(C#N)(c2cc(OC)c(OC)c(OC)c2)C(C)C)cc1OC.Cl (configuration not stated) [GALLOPAMIL HYDROCHLORIDE] | – | 0.31 | – | 0.9 | 0.97 | – | 0.94 | 0.94 | -0.5 | 0.16 | 0.03 | 0.41 | 0.73 | – | – | – | – | – | 1 | – | Growth Rate (Fibroblast; 0 h, replicate number 1): -0.26; Growth Rate (Fibroblast; 12 h, replicate number 2): 0.12; Growth Rate (U2OS; 0 h, replicate number 2): -0.88
Cc1cccc(-c2nn3c(c2-c2ccnc4ccc(C(N)=O)cc24)CCC3)n1 [GALUNISERTIB] | -0.5 | – | 0.64 | – | 0.74 | – | 0.73 | 0.8 | – | – | – | – | – | – | 0.66 | 0.75 | 0.87 | 0.93 | 0.76 | -0.43 | Growth Rate (Fibroblast; 0 h, replicate number 2): -0.6; Growth Rate (U2OS; 0 h, replicate number 2): 0.64; Growth Rate (U2OS; 6 h, replicate number 1): 0.57; Growth Rate (U2OS; 12 h, replicate number 2): 0.83
CN[C@@H](C)C(=O)N[C@H](C(=O)N1CCC[C@H]1C(=O)Nc1snnc1-c1ccccc1)C1CCCCC1 [GDC-0152] | 0.81 | 0.13 | -0.14 | -0.36 | 0.05 | -0.27 | 0.07 | 0.07 | -0.88 | – | – | – | – | – | – | – | 0.98 | – | 0.98 | 0.23 | Growth Rate (HEK-293T; 24 h, replicate number 1): -0.26; Growth Rate (Fibroblast; 0 h, replicate number 1): -0.28; Growth Rate (Fibroblast; 0 h, replicate number 2): -0.71; Growth Rate (Fibroblast; 18 h, replicate number 1): 0.81; Growth Rate (U2OS; 12 h, replicate number 2): 0.89
CN(C)CCCn1cc(C2=C(c3c[nH]c4ccccc34)C(=O)NC2=O)c2ccccc21 [GF-109203] | -0.26 | – | – | – | 0.81 | – | 0.99 | 0.98 | -0.72 | – | -1 | 0.65 | 0.41 | – | – | 0.94 | – | 0.8 | 0.82 | -0.01 | Growth Rate (HEK-293T; 0 h, replicate number 2): -0.46; Growth Rate (Fibroblast; 0 h, replicate number 2): -0.49
Cn1c2ccccc2c2c3c(c4c5ccccc5n(CCC#N)c4c21)CNC3=O [GO-6976] | -0.49 | 0.62 | 0.05 | 0.69 | -0.2 | 0.36 | -0.19 | -0.14 | -0.79 | – | -1 | 0.88 | 0.48 | – | – | 0.29 | 0.63 | 0.17 | 0.39 | – | Growth Rate (HEK-293T; 0 h, replicate number 2): -0.13; Growth Rate (HEK-293T; 24 h, replicate number 1): 0.7; Growth Rate (U2OS; 0 h, replicate number 2): -0.94
CC(=O)Nc1c(F)cc(C(=O)N[C@H]2CC[C@H](O)CC2)cc1O[C@@H](C)c1ccccc1 [GSK046] | 0.58 | – | 0.69 | – | 0.74 | 0.95 | – | 0.83 | 0.63 | 0.19 | 0.75 | 0.93 | 1 | 0.86 | 0.72 | 0.79 | 0.97 | 0.83 | 0.84 | -0.56 | Growth Rate (HEK-293T; 24 h, replicate number 1): 0.71; Growth Rate (Fibroblast; 0 h, replicate number 2): 0.44; Growth Rate (Fibroblast; 12 h, replicate number 2): 0.74; Growth Rate (Fibroblast; 18 h, replicate number 1): 0.6; Growth Rate (Fibroblast; 24 h, replicate number 1): 0.71; Growth Rate (U2OS; 0 h, replicate number 2): 0.83; Growth Rate (U2OS; 6 h, replicate number 1): -0.86; Growth Rate (U2OS; 12 h, replicate number 2): 0.94
CNC(=O)c1cc(C(=O)NC2CC2)cn(Cc2ccccc2)c1=O [GSK620] | -0.72 | – | 0.74 | – | 0.76 | – | 0.99 | 0.8 | – | 0.25 | – | – | – | 0.92 | 0.69 | 0.66 | – | 0.88 | – | -0.46 | Growth Rate (HEK-293T; 0 h, replicate number 2): 0.91; Growth Rate (HEK-293T; 24 h, replicate number 1): 0.93; Growth Rate (Fibroblast; 0 h, replicate number 1): 0.38; Growth Rate (U2OS; 6 h, replicate number 1): 0.54
COCc1nc2cnc3cc(-c4c(C)noc4C)c(OC[C@H]4CCNC4)cc3c2n1[C@H](C)c1ccccc1 [GSK778] | – | – | – | – | – | – | – | – | 0.26 | -0.01 | 0.63 | – | – | -0.84 | -0.64 | – | 0.74 | 1 | 0.7 | 0.09 | Growth Rate (HEK-293T; 0 h, replicate number 2): 0.24; Growth Rate (Fibroblast; 12 h, replicate number 2): 0.65; Growth Rate (Fibroblast; 18 h, replicate number 1): 0.73; Growth Rate (Fibroblast; 24 h, replicate number 1): 0.98; Growth Rate (U2OS; 0 h, replicate number 2): -1; Growth Rate (U2OS; 6 h, replicate number 1): 0.78; Growth Rate (U2OS; 12 h, replicate number 2): 0.73
Cc1cc2c(-c3ccco3)cnc(N[C@@H]3CCN(C)C[C@H]3C(=O)NC3CCCCC3)c2[nH]c1=O [GSK789] | 0.12 | – | – | – | – | – | – | – | 0.33 | 0 | – | – | – | 0.89 | 1 | – | – | – | 1 | -0.1 | Growth Rate (U2OS; 6 h, replicate number 1): 0.92
Cc1cc2c(-c3ccco3)cnc(N[C@H]3CCN(C)C[C@@H]3C(=O)NC3CCCCC3)c2[nH]c1=O [GSK791] | – | – | – | – | – | – | – | – | 0.66 | 0.72 | 0.82 | – | – | – | -0.81 | – | – | – | – | -0.05 | Growth Rate (HEK-293T; 0 h, replicate number 2): -0.74
CCc1ccc(N(CC(C)C)S(=O)(=O)c2ccc(OCC3CCOCC3)c(CO)c2)cc1 [GSK2981278] | -0.35 | 0.86 | – | 0.83 | 0.5 | 0.81 | 0.48 | 0.53 | – | – | – | 0.7 | 0.85 | 0.96 | – | 0.98 | – | – | – | 0.11 | Growth Rate (HEK-293T; 24 h, replicate number 1): 0.82; Growth Rate (Fibroblast; 0 h, replicate number 2): 0.86; Growth Rate (Fibroblast; 24 h, replicate number 1): 0.91; Growth Rate (U2OS; 0 h, replicate number 2): 0.13; Growth Rate (U2OS; 6 h, replicate number 1): 0.9
CC(C)(C)OC(=O)CN(Cc1ccc(Cl)cc1)Cc1ccc([N+](=O)[O-])s1 [GSK-4112] | 0.04 | 0.86 | 0.58 | 0.78 | 0.91 | 0.76 | 0.75 | 0.92 | 0.7 | -0.08 | 0.71 | 0.06 | 0.19 | – | 0.82 | 0.94 | – | 0.95 | – | – | Growth Rate (HEK-293T; 0 h, replicate number 2): 0.51; Growth Rate (Fibroblast; 12 h, replicate number 2): 0.06; Growth Rate (Fibroblast; 18 h, replicate number 1): 0.74; Growth Rate (Fibroblast; 24 h, replicate number 1): 0.72
